According to US20130231334A1, “METHODS OF CONTROLLING NEONICOTINOID RESISTANT APHIDS” (SYNGENTA CROP PROTECTION LLC, priority 2010, published 2013):

Tests used:
Type in all cases: in vivo
[1] = system: susceptible or neonicotinoid-resistant Myzus persicae population; experiment: Pea seedling spray test, mortality of susceptible and neonicotinoid-resistant populations (Example 2); conditions: ratio of rates for 80% mortality, resistant versus susceptible Myzus persicae; BP80 = lowest known rate providing 80% or more mortality; 6 days after treatment; pea seedlings
Procedure: Pea seedlings, infested with a susceptible or neonicotinoid-resistant Myzus persicae population of mixed ages, respectively, are treated with the test solutions (200, 50, 12.5, 3, 0.8, 0.2, 0.05 ppm a.i.) in a turn table spray chamber. 6 days after treatment, samples are checked for mortality.
The results of the resistance factor at BP80 (lowest known rate providing 80% or more mortality) are indicated below.

[2] = system: neonicotinoid insecticide susceptible strain 4106A; experiment: Leaf disc spray bioassay on chinese cabbage, aphid mortality (Example 1), susceptible strain; conditions: susceptible strain 4106A (Rothamsted Research), mixed age aphids, mortality 72 hours after treatment
Procedure: (§1) 5 cm leaf discs were taken from fully expanded chinese cabbage leaves and placed with the underside facing upwards onto water agar in 5 cm Petri dishes. The leaf discs are infested with between 30 and 40 mixed age aphids 24 hours prior to insecticide treatment. The leaf surface is sprayed with the appropriate test solutions in a Burkhard Potter Tower at an approximate water volume of […]. Test containers are stored at 21° C., 60% RH and 16:8 light/dark. Aphids were assessed for mortality 72 hours after treatment.

[3] = system: neonicotinoid insecticide resistant aphid strain; experiment: Leaf disc spray bioassay on chinese cabbage, aphid mortality (Example 1), resistant strain; conditions: resistant aphid strain from peach orchard, Avignon region, mixed age aphids, mortality 72 hours after treatment
Procedure: as §1

| SMILES | resistance factor at BP80 [1] | LC50 with 95% confidence limit, susceptible strain [2] | LC50 with 95% confidence limit, resistant strain [3] |
| --- | --- | --- | --- |
| O=C(NCc1ccccn1)c1cnccc1C(F)(F)F [164149-37-5] | 4 |  |  |
| N#CCNC(=O)c1cnccc1C(F)(F)F [flonicamid] |  | 1.65 (1.3-2.09) ppm | 2.74 (0.53-6.81) ppm |
| CN(O)C(=O)c1cnccc1C(F)(F)F [323180-93-4] | Not adequate control for 80% mortality on sensitive & resistance strains |  |  |
| CN/C(=N\[N+](=O)[O-])NCc1cnc(Cl)s1 [clothianidin] |  | 0.33 (0.28-0.38) ppm | 904 (478-3616) ppm |
| O=C(N=S(c1ccccc1)c1ccccc1)c1cnccc1C(F)(F)F [362724-14-9] | 4 |  |  |
| N#C/N=C1\SCCN1Cc1ccc(Cl)nc1 [thiacloprid] |  | 0.38 (0.34-0.42) ppm | >1000 ppm |
| CN(C)C(=O)c1cnccc1C(F)(F)F [158063-01-5] | 1.7 |  |  |
| O=C(NCc1ccc(Cl)cc1)c1cnccc1C(F)(F)F [158063-19-5] | >16 |  |  |
| CCN(Cc1ccc(Cl)nc1)/C(=C/[N+](=O)[O-])NC [nitenpyram] |  | 1.26 (1.03-1.61) ppm | 237 (93.7-3566) ppm |
| CNC(=O)c1cnccc1C(F)(F)F [158062-76-1] | 1 |  |  |
| CN/C(=N/CC1CCOC1)N[N+](=O)[O-] (stereo not drawn) [dinotefuran] |  | 9.95 (8.21-12.5) ppm | 538 (435-696) ppm |
| Cc1noc(-c2cnccc2C(F)(F)F)n1 [276684-49-2] | <1 |  |  |
| O=C(c1cnccc1C(F)(F)F)N(O)Cc1ccccc1 [323181-02-8] | >1 |  |  |
| NC(=O)c1cnccc1C(F)(F)F [158062-71-6] | 4 |  |  |
| CC(C)N1CN=C(c2cnccc2C(F)(F)F)OC1=O [1098412-17-9] | 1 |  |  |
| C/C(=N\C#N)N(C)Cc1ccc(Cl)nc1 [acetamiprid] |  | 0.55 (0.51-0.59) ppm | 49.3 (35.2-72.0) ppm |
| CO/N=C(\C)CNC(=O)c1cnccc1C(F)(F)F | 4 |  |  |
| CN1COCN(Cc2cnc(Cl)s2)/C1=N/[N+](=O)[O-] [thiamethoxam] | >250 | 0.35 (0.3-0.41) ppm | 148 (128-172) ppm |
| O=C(NCN1CCCC1)c1cnccc1C(F)(F)F [158063-50-4] | 1 |  |  |
